Consider 1 molecule from patent US20240150279A1, “C PRIME AGENTS FOR TREATING METABOLIC DISORDERS” (The University of Toledo, priority 2021, published 2024).

Each structure is given as a SMILES string.

For this assay, the system named is PDX1-BIRC5-Survivin axis.

As to `CCC(C)(C)C(=O)OC1CC(C)C=C2C=CC(C)C(CCC(O)CC(O)CC(=O)NO)C21` (stereo not shown) [Sim-CONHOH, Simvastatin-NHOH], the “activity in the PDX1-BIRC5-Survivin bioassays” value was “active”.
